Values joined by “and” are separate entries in the source; they are usually repeats but may differ in a detail not shown here. Identical values can stand only once. Toxic doses and inconclusive results are not listed. Rule as the data show it: active = T/C of 150% or more; inactive = T/C below 125%.
Test system: L1210 leukemia ip in BDF1 mice, survival T/C
Assay: NCI In Vivo Anticancer Drug Screen. Data for tumor model L1210 Leukemia (intraperitoneal) in B6D2F1 (BDF1) mice
Settings: higher = longer survival
In short: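 Survival endpoint. Drug-treated group vs vehicle group, expressed as T divided by C. Tumor passaged by transplantation.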

[1] = endpoint: mean survival time, dose: 100.0 mg/kg/injection, schedule: Q01DX009 (ip), vehicle: saline with Tween-80
[2] = endpoint: mean survival time, dose: 200.0 mg/kg/injection, schedule: Q01DX009 (ip), vehicle: saline with Tween-80
[3] = endpoint: mean survival time, dose: 400.0 mg/kg/injection, schedule: Q01DX009 (ip), vehicle: saline with Tween-80
[4] = endpoint: mean survival time, dose: 12.5 mg/kg/injection, schedule: Q01DX009 (ip), vehicle: Klucel (hydroxypropylcellulose) (HPC)
[5] = endpoint: mean survival time, dose: 25.0 mg/kg/injection, schedule: Q01DX009 (ip), vehicle: Klucel (hydroxypropylcellulose) (HPC)
[6] = endpoint: mean survival time, dose: 50.0 mg/kg/injection, schedule: Q01DX009 (ip), vehicle: Klucel (hydroxypropylcellulose) (HPC)
[7] = endpoint: mean survival time, dose: 100.0 mg/kg/injection, schedule: Q04DX003 (ip), vehicle: Klucel (hydroxypropylcellulose) (HPC)
[8] = endpoint: mean survival time, dose: 200.0 mg/kg/injection, schedule: Q04DX003 (ip), vehicle: Klucel (hydroxypropylcellulose) (HPC)
[9] = endpoint: mean survival time, dose: 75.0 mg/kg/injection, schedule: Q01DX001 (ip), vehicle: saline
[10] = endpoint: mean survival time, dose: 150.0 mg/kg/injection, schedule: Q01DX001 (ip), vehicle: saline
[11] = endpoint: mean survival time, dose: 100.0 mg/kg/injection, schedule: Q04DX003 (ip), vehicle: saline with Tween-80
[12] = endpoint: mean survival time, dose: 200.0 mg/kg/injection, schedule: Q04DX003 (ip), vehicle: saline with Tween-80
[13] = endpoint: mean survival time, dose: 400.0 mg/kg/injection, schedule: Q04DX003 (ip), vehicle: saline with Tween-80
[14] = endpoint: mean survival time, dose: 100.0 mg/kg/injection, schedule: Q01DX009 (ip), vehicle: Klucel (hydroxypropylcellulose) (HPC)

Measured: T/C

CC(C)CC(Br)C(=O)NCC(=O)O (stereo unspecified)
inactive: [1] 88 % of control | [2] 91 % of control | [3] 89 % of control

CCCC1=NNc2n[nH]c(=S)n2N1
inactive: [4] 93 % of control | [5] 90 % of control | [6] 98 % of control | [7] 100 % of control | [8] 96 % of control

NC1CCC(c2ccccc2)(c2ccccc2)C1=O (stereo unspecified)
inactive: [9] 100 % of control | [10] 102 % of control

CC(O)(C(=O)O)c1ccccc1O (stereo unspecified)
inactive: [9] 98 % of control | [10] 96 % of control | endpoint: mean survival time, dose: 300.0 mg/kg/injection, schedule: Q01DX001 (ip), vehicle: saline 93 % of control

Nc1ncnc2[nH]ncc12
inactive: endpoint: mean survival time, dose: 0.94 mg/kg/injection, schedule: Q01DX Z (ip), vehicle: carboxymethylcellulose (CMC) 92 % of control | endpoint: mean survival time, dose: 1.7 mg/kg/injection, schedule: Q01DX015 (ip), vehicle: carboxymethylcellulose (CMC) 98 % of control | endpoint: mean survival time, dose: 1.88 mg/kg/injection, schedule: Q01DX Z (ip), vehicle: carboxymethylcellulose (CMC) 97 % of control | endpoint: mean survival time, dose: 2.6 mg/kg/injection, schedule: Q01DX015 (ip), vehicle: carboxymethylcellulose (CMC) 96 % of control and 99 % of control | endpoint: mean survival time, dose: 3.75 mg/kg/injection, schedule: Q01DX Z (ip), vehicle: carboxymethylcellulose (CMC) 114 % of control | endpoint: mean survival time, dose: 4.0 mg/kg/injection, schedule: Q01DX015 (ip), vehicle: carboxymethylcellulose (CMC) 107 % of control and 108 % of control | endpoint: mean survival time, dose: 6.0 mg/kg/injection, schedule: Q01DX015 (ip), vehicle: carboxymethylcellulose (CMC) 111 % of control and 114 % of control | endpoint: mean survival time, dose: 7.5 mg/kg/injection, schedule: Q01DX Z (ip), vehicle: carboxymethylcellulose (CMC) 114 % of control | endpoint: mean survival time, dose: 8.0 mg/kg/injection, schedule: Q02DX010 (ip), vehicle: carboxymethylcellulose (CMC) 109 % of control | endpoint: mean survival time, dose: 9.0 mg/kg/injection, schedule: Q01DX015 (ip), vehicle: carboxymethylcellulose (CMC) 109 % of control and 120 % of control | endpoint: mean survival time, dose: 13.0 mg/kg/injection, schedule: Q02DX010 (ip), vehicle: other 115 % of control | endpoint: mean survival time, dose: 13.5 mg/kg/injection, schedule: Q01DX015 (ip), vehicle: carboxymethylcellulose (CMC) 106 % of control | endpoint: mean survival time, dose: 20.0 mg/kg/injection, schedule: Q02DX010 (ip), vehicle: other 120 % of control | endpoint: mean survival time, dose: 25.0 mg/kg/injection, schedule: Q01DX009 (ip), vehicle: saline 106 % of control | endpoint: mean survival time, dose: 30.0 mg/kg/injection, schedule: Q02DX010 (ip), vehicle: other 115 % of control | endpoint: mean survival time, dose: 45.0 mg/kg/injection, schedule: Q02DX010 (ip), vehicle: other 121 % of control | endpoint: mean survival time, dose: 67.0 mg/kg/injection, schedule: Q02DX010 (ip), vehicle: other 91 % of control | endpoint: mean survival time, dose: 80.0 mg/kg/injection, schedule: Q01DX001 (ip), vehicle: carboxymethylcellulose (CMC) 111 % of control | endpoint: mean survival time, dose: 120.0 mg/kg/injection, schedule: Q01DX001 (ip), vehicle: carboxymethylcellulose (CMC) 103 % of control | endpoint: mean survival time, dose: 182.0 mg/kg/injection, schedule: Q01DX001 (ip), vehicle: carboxymethylcellulose (CMC) 117 % of control | endpoint: median survival time, dose: 3.0 mg/kg/injection, schedule: Q01DX009 (ip), vehicle: saline 100 % of control and 105 % of control | endpoint: median survival time, dose: 6.0 mg/kg/injection, schedule: Q01DX009 (ip), vehicle: saline 100 % of control and 111 % of control | endpoint: median survival time, dose: 12.0 mg/kg/injection, schedule: Q01DX009 (ip), vehicle: saline 112 % of control | endpoint: median survival time, dose: 24.0 mg/kg/injection, schedule: Q01DX009 (ip), vehicle: saline 100 % of control and 112 % of control

CCCC1(CCC)NC(=O)N(CC(N)=O)C1=O
inactive: [11] 100 % of control | [12] 102 % of control | [13] 98 % of control

CCC1C(=O)N(c2ccc(S(=O)(=O)O)cc2)N=C1C (stereo unspecified)
inactive: [7] 95 % of control | [8] 95 % of control

C[N+]1(C)C2CCC(OCc3ccccc3)C1COC2 (stereo unspecified)
inactive: [9] 98 % of control | [10] 105 % of control

CCC/C(C)=N/Nc1ccccn1
inactive: [4] 97 % of control | [5] 94 % of control | endpoint: mean survival time, dose: 25.0 mg/kg/injection, schedule: Q01DX009 (ip), vehicle: acetone 106 % of control | [6] 102 % of control | endpoint: mean survival time, dose: 50.0 mg/kg/injection, schedule: Q01DX009 (ip), vehicle: acetone 87 % of control | endpoint: mean survival time, dose: 50.0 mg/kg/injection, schedule: Q04DX003 (ip), vehicle: acetone 103 % of control | endpoint: mean survival time, dose: 100.0 mg/kg/injection, schedule: Q01DX001 (ip), vehicle: acetone 98 % of control | [14] 102 % of control | endpoint: mean survival time, dose: 100.0 mg/kg/injection, schedule: Q04DX003 (ip), vehicle: acetone 97 % of control | endpoint: mean survival time, dose: 200.0 mg/kg/injection, schedule: Q01DX001 (ip), vehicle: acetone 103 % of control

O=C1c2ccccc2C(=O)N1CN1C(=O)c2ccccc2C1=O
inactive: [11] 88 % of control | [12] 91 % of control

CCC(CC)OC(=O)c1cc([N+](=O)[O-])cc([N+](=O)[O-])c1
inactive: [11] 91 % of control | [12] 87 % of control | [13] 94 % of control

CN=C(NC)c1ccc(NC(=O)c2cc(OC)cc(C(=O)Nc3ccc(C(=NC)NC)cc3)c2)cc1
inactive: endpoint: mean survival time, dose: 3.75 mg/kg/injection, schedule: Q01DX Z (ip), vehicle: saline 100 % of control | endpoint: mean survival time, dose: 7.5 mg/kg/injection, schedule: Q01DX Z (ip), vehicle: saline 98 % of control | endpoint: mean survival time, dose: 15.0 mg/kg/injection, schedule: Q01DX Z (ip), vehicle: saline 98 % of control

COC(=O)CC(C)=S.[Ni]
inactive: endpoint: mean survival time, dose: 50.0 mg/kg/injection, schedule: Q01DX001 (ip), vehicle: saline 98 % of control | endpoint: mean survival time, dose: 100.0 mg/kg/injection, schedule: Q01DX001 (ip), vehicle: saline 98 % of control | endpoint: mean survival time, dose: 200.0 mg/kg/injection, schedule: Q01DX001 (ip), vehicle: saline 98 % of control | endpoint: mean survival time, dose: 400.0 mg/kg/injection, schedule: Q01DX001 (ip), vehicle: saline 117 % of control

CCCCC(O)CCC (stereo unspecified)
inactive: [14] 96 % of control | [1] 98 % of control | [7] 98 % of control | [11] 100 % of control | endpoint: mean survival time, dose: 200.0 mg/kg/injection, schedule: Q01DX009 (ip), vehicle: Klucel (hydroxypropylcellulose) (HPC) 107 % of control | [2] 95 % of control | [8] 93 % of control | [12] 98 % of control | endpoint: mean survival time, dose: 400.0 mg/kg/injection, schedule: Q01DX009 (ip), vehicle: Klucel (hydroxypropylcellulose) (HPC) 95 % of control | [3] 91 % of control | endpoint: mean survival time, dose: 400.0 mg/kg/injection, schedule: Q04DX003 (ip), vehicle: Klucel (hydroxypropylcellulose) (HPC) 93 % of control | [13] 98 % of control

CC(=O)N1C(=O)C2(Nc3ccccc3N2)c2ccccc21
inactive: endpoint: mean survival time, dose: 100.0 mg/kg/injection, schedule: Q01DX001 (ip), vehicle: carboxymethylcellulose (CMC) 87 % of control | endpoint: mean survival time, dose: 200.0 mg/kg/injection, schedule: Q01DX001 (ip), vehicle: carboxymethylcellulose (CMC) 87 % of control | endpoint: mean survival time, dose: 400.0 mg/kg/injection, schedule: Q01DX001 (ip), vehicle: carboxymethylcellulose (CMC) 96 % of control

From PubChem BioAssay AID248 (DTP/NCI, 2004)
